From PMC3269340, “Pharmacokinetics of memantine in rats and mice” (PLoS Currents, 2012) come the findings set out here.

Data set [1] addresses T1, OCT2 (Homo sapiens, UniProt O15244).
T1 construct: expressed in transfected cells; host or cells: CHO cells
T1 sequence (O15244 1-555): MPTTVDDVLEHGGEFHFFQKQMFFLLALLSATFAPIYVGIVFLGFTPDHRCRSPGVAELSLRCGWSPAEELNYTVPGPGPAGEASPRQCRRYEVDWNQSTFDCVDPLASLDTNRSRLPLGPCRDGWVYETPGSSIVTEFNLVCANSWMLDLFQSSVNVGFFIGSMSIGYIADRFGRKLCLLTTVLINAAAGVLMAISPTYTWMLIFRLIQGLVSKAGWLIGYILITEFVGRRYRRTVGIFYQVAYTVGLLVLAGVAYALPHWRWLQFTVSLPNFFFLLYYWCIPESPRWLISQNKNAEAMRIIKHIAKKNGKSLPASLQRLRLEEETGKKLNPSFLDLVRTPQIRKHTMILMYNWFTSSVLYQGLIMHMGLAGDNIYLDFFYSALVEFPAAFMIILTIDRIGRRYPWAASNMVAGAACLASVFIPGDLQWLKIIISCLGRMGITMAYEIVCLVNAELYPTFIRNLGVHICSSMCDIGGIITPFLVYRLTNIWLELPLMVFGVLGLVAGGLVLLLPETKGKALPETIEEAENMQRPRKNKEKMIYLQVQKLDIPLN
Kind of data set: Indirect uptake transporter assay, OCT2. The format is in vitro ADME. The source says: To determine whether memantine is an inhibitor of the human OATP2B1 (OATP-B), OCT1, OCT2, OAT3, PEPT1, PEPT2 uptake transporters. The standard uptake transporter assay is an indirect, inhibitory-type screening assay, performed with cold test article, which in this case was memantine. It provides information on any interaction (substrate or inhibitor) between selected uptake transporters and memantine that would affect the transport of the reporter compound. […] A radiolabeled reporter substrate is transported into the cells transfected with the selected human uptake transporter, and the inhibitory effect of memantine on the transport of this reporter substrate is measured. Values are presented on a relative scale; 100% defined as transport in the presence of the solvent and without memantine (no inhibition), and 0% defined as transport detected without transporter activity. IC50 is defined as the concentration required to inhibit the transport of the reporter substrate by 50%. […]
After the experiment cells were rinsed with 2 x 100µl of Krebs-Henseleit buffer and lysed with 50 µl of 0.1M NaOH. ^3H-estrone-3-sulfate, ^14C-TEA, ^14C-metformin and ^3H-Gly-Sar transport was determined by total radioactivity by transferring an aliquot (35µl) from each well to a vial containing liquid scintillant for analysis.

Data set [2] deals with T1, OCT2. The data set can be described thus: Direct uptake transporter assay, OCT2. The format is in vitro ADME. Particulars: for Accumulation in transporter transfected cells: OCT2-transfected cells; for Accumulation in parental cells: parental CHO cells (OCT2 line). How it is done:
To determine whether memantine is a substrate of the human OATP2B1 (OATP-B), OCT1, OCT2, OAT3, PEPT1, PEPT2 uptake transporters.
The potential for memantine to be a substrate of an uptake transporter was determined directly by comparing the uptake of memantine into cells expressing the selected uptake transporter with its uptake into control cells. Memantine was added to transporter-expressing and control cells at two concentrations (PEPT1 and PEPT2 100 and 300 µM, OCT1 and OCT2 50 and 100 µM, OATP2B1 100 and 300 µM), and incubated with cells for 2 and 20 min at 37±1°C (75 µL final incubation volume). […] Incubations were carried out as described in the indirect uptake transporter assays. The concentration of memantine was determined by LC-MS/MS.

Bounds are passed on as bounds.

As a reminder, the IC50 is the concentration that gives 50% inhibition. The low end stands for greater potency in that assay, the high end for weaker potency in that assay. As to `CC12CC3CC(C)(C1)CC(N)(C3)C2` [memantine], the IC50 on OCT2 [1] (OCT2-mediated metformin uptake) came out at 8.9 µM; on OCT2 [1] (OCT2, probe in Table 5: Gly-Sar (1.8 μM), methods and text: metformin) it was 8.86 µM. Also, on OCT2 [2], the “substrate of OCT2 uptake transporter” value is on record as “appeared to be a substrate”. On OCT2 [2] (OCT2), the “accumulation in transporter-transfected cells higher than in parental cells” value is given as over 1.5 fold. Besides, on OCT2 [2] (OCT2, 100µM, 2 min), the “Highest Fold Activation” value is listed as 1.88 (100µM, 2 min). The “Accumulation in transporter transfected cells” value at OCT2 [2] (2 min, 50 µM) was 8492 pmol/mg; on OCT2 [2] (2 min, 100 µM), 15071 pmol/mg; at OCT2 [2] (20 min, 50 µM) it was 8866 pmol/mg; on OCT2 [2] (20 min, 100 µM), 15495 pmol/mg. For the same molecule, the “Accumulation in parental cells” value on OCT2 [2] (2 min, 50 µM) is 5660 pmol/mg; on OCT2 [2] (2 min, 100 µM), 8000 pmol/mg; at OCT2 [2] (20 min, 50 µM), 5790 pmol/mg; on OCT2 [2] (20 min, 100 µM), 8459 pmol/mg.
